According to patent US20260364013A1, “COMPOSITION AND METHOD OF PREPARATION OF BLOACTIVE TRITERPENOID MILK FAT GLOBULE FORMULATIONS” (EFNATICS B.V., priority 2023, published 2026):

Key:
[1] = system: tumor growth of predominant cancer types; conditions: preclinically in vivo; cited from earlier work
[2] = system: non-cancerous healthy cells; conditions: in vitro; cited from earlier work
[3] = at a range of molar ratios; cited from earlier work
[4] = at concentrations effectively limiting cancer growth, up to 500 mg per kg bodyweight; cited from earlier work
cancer cell lines = conditions: cited from earlier work
tumor [5] = assay: Anti-tumor effect in mice after oral liposomal betulinic acid; type: in vivo; conditions: extrapolated from 150 mg/kg weekly oral dose in mice
[6] = system: stearoyl-CoA-desaturase (SCD-1); conditions: role: inhibitor; cited from earlier work
tumor [7] = conditions: oral, liposomal betulinic acid; cited from earlier work

SMILES	Tumor growth inhibition [1]	Cytotoxicity for non-cancerous healthy cells [2]	Miscibility with outer leaflet membrane phospholipids [3]	Signs of toxicity in animal experiments [4]	Activity against cancer types in vitro (cancer cell lines)	Weekly dose extrapolated to an individual of 80 kg (tumor [5]) [gr]	Effect on SCD-1 activity [6]	Weekly orally administered dose required for the observed anti-tumor effects in mice (tumor [7]) [mg/kg bodyweight]
C=C(C)[C@@H]1CC[C@]2(C(=O)O)CC[C@]3(C)[C@H](CC[C@@H]4[C@@]5(C)CC[C@H](O)C(C)(C)[C@@H]5CC[C@]43C)[C@@H]12 [betulinic acid, (3β)-3-Hydroxylup-20 (29)-en-28-oic acid]	inhibits tumor growth of predominant cancer types	absent	miscible	no signs of toxicity were observed	broad activity against all prevalent cancer types in vitro	12	inhibit the activity of stearoyl-CoA-desaturase (SCD-1)	150
C=C(C)[C@@H]1CC[C@]2(C)CC[C@]3(C)[C@H](CC[C@@H]4[C@@]5(C)CC[C@H](O)C(C)(C)[C@@H]5CC[C@]43C)[C@@H]12 [lupeol, (3β)-Lup-20 (29)-en-3-ol]	–	–	miscible	–	–	–	–	–
